The results in this text go back to US6437184B1, “Oxime compounds, their use, and intermediates for their production” (Sumitomo Chemical Company, Limited, priority 1997, dated 2002).

Holding throughout (type): in vivo
For one experiment, the system named is Spodoptera litura. The experiment in a line: Insecticidal test against Spodoptera litura. To be noted: 144 h, 500 ppm water dilution, 2 ml absorbed in 13 g artificial diet, fourth-instar larvae, after 6 days. The protocol:
A 200-fold water dilution (500 ppm) of a test compound formulation obtained according to Formulation Example 1 or 2 was absorbed at a volume of 2 ml in an artificial diet (Insecta LF available from Nihon Nosan K.K.) having a weight of 13 g, which had been prepared in a polyethylene cup having a diameter of 11 cm. Five fourth-instar larvae of Spodoptera litura were set free in the cup. After 6 days, the survival of the larvae was examined to determine the mortality.

The next experiment relates to Plutella xylostella. The experiment in a line: Insecticidal test against Plutella xylostella. The conditions noted are these: 96 h, 50 ppm water dilution sprayed over potted cabbages, 25 ml per pot, third-instar larvae, after 4 days, read-out: mortality. Summed up: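 Potted cabbages at four-to-five leaf stage sprayed with 50 ppm compound formulation plus spreading agent at 3000-fold dilution, air-dried, then infested with ten third-instar larvae per pot. Mortality determined after 4 days.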

Another experiment concerns Heliothis virescens. Kind of experiment: Insecticidal test against Heliothis virescens. The conditions noted are these: 168 h, 100 ppm water dilution, 0.2 ml on surface of artificial diet, second-instar larvae, after 7 days. How it is done:
A water dilution (100 ppm) of a test compound formulation obtained according to Formulation Example 1 was added dropwise at a volume of 0.2 ml and uniformly spread over the surface of an artificial diet having a weight of 3 g, which had been prepared in a 30 ml plastic cup. After air drying, one second-instar larva of Heliothis virescens was set free in each cup. Ten larvae were used for each treatment. After 7 days, the mortality of the larvae was determined.

Another experiment relates to Cydia pomonella. The experiment in a line: Insecticidal test against Cydia pomonella. The conditions noted are these: 168 h, 100 ppm water dilution, 0.2 ml on surface of artificial diet, eggs just before hatching, after 7 days. In outline:
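A 100 ppm aqueous dilution of formulated compound (0.2 ml) was spread onto 3 g artificial diet and air-dried. About 20 near-hatching Cydia pomonella eggs on wax paper were added, four replicates per treatment. Larval mortality was recorded after 7 days.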

Another experiment has as its system Helicoverpa armigera. Kind of experiment: Insecticidal test against Helicoverpa armigera. To be noted: 120 h, 100 ppm water dilution, cotton leaf fragment immersed 10 seconds, third-instar larvae, after 5 days. The protocol: A cotton leaf fragment (diameter, 5 cm) was immersed for 10 seconds Lin a water dilution (100 ppm) of a test compound formulation obtained according to Formulation Example 1. This fragment was taken out from the dilution, air dried, and placed in a polyethylene cup having a diameter of 5.5 cm. One third-instar larva of Helicoverpa armigera was set free in each cup. Ten larvae were used for each treatment. After 5 days, the mortality of the larvae was determined.

A further experiment has as its system Tetranychus urticae. The experiment in a line: Acaricidal test against Tetranychus urticae. Also on record: key: −: almost no damage and completely no surviving mites; ±: slight damage and some few surviving mites; +: rather smaller damage and a rather fewer surviving mites than non-treatment case; ++: same as non-treatment case. To be noted: 500 ppm water dilution, 15 ml sprayed over brush bean with female adults set free 6 days before; after 8 days. How it is done:
About twenty female adults of Tetranychus urticae were set free on brush bean (Phaseolus vulgaris) in the primary leaf stage, which had been potted in a plastic cup for 7 days after the seeding. After 6 days, a 200-fold water dilution (500 ppm) of a test compound formulation obtained according to Formulation Example 1 or 2 was sprayed at a volume of 15 ml over the plant. After 8 days, each compound was evaluated for acaricidal activity on the following criteria.
−: almost no damage and completely no surviving mites
±: slight damage and some few surviving mites
+: rather smaller damage and a rather fewer surviving mites than non-treatment case
++: same as non-treatment case

The next experiment deals with Musca domestica. Kind of experiment: Insecticidal test against Musca domestica. The conditions noted are these: 24 h, 500 ppm water dilution, 0.7 ml on filter paper with sucrose, female adults, after 1 day, read-out: mortality. In outline:
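Filter paper treated with 500 ppm water dilution of formulated compound, with sucrose as diet; ten female adult houseflies confined in covered cup. Mortality determined from adult survival after 1 day.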

For orientation: mortality means the share of the test organisms that died.

`CC(C)(C)ON=CCCOc1c(Cl)cc(OCC=C(Cl)Cl)cc1Cl` [(133), 3-(2,6-dichloro-4-(3,3-dichloro-2-propenyloxy)phenoxy)propionaldehyde O-tert-butyloxime] returned a mortality at 500 µg/mL in the experiment on Spodoptera litura of at least 80%.

In the experiment with Spodoptera litura, `CC(C)(C)ON=CCOCCCOc1c(Cl)cc(OCC=C(Cl)Cl)cc1Cl` [(90), 3-(2,6-dichloro-4-(3,3-dichloro-2-propenyloxy)phenoxy)propyloxyacetaldehyde O-tert-butyloxime] came in with a mortality at 500 µg/mL of at least 80%. Besides, in the experiment on Plutella xylostella, the mortality at 50 µg/mL is at least 80%. In addition, the mortality at 100 µg/mL in the experiment on Heliothis virescens and with Cydia pomonella was at least 80% in each case.

With `CCON=C(C)COc1ccc(OCC=CCl)cc1` [(A), 4-(3-chloro-2-propenyloxy)phenoxyacetone O-ethyloxime, reference compound], the mortality at 500 µg/mL in the experiment on Spodoptera litura and in the experiment with Musca domestica was 0% in each case. The mortality at 50 µg/mL with Plutella xylostella is 0%. For the same compound, in the experiment on Helicoverpa armigera, the mortality at 100 µg/mL came out at 0%. In addition, in the experiment with Tetranychus urticae, the acaricidal activity result is reported as “+”.

Regarding `CC(C)CCON=Cc1ccc(Oc2ccccc2)cc1` [(B), 4-phenoxy-benzaldehyde O-(3-methylbutyl)oxime, reference compound], the mortality at 500 µg/mL in the experiment on Spodoptera litura and in the experiment on Musca domestica was 0% in each case. Besides, the acaricidal activity entry in the experiment with Tetranychus urticae is given as “+”.

Take `ClC(Cl)=CCON=CCOCCCCCCOc1c(Cl)cc(OCC=C(Cl)Cl)cc1Cl` [(34), 6-(2,6-dichloro-4-(3,3-dichloro-2-propenyloxy)phenoxy)hexyloxyacetaldehyde O-(3,3-dichloro-2-propenyl)oxime]: the mortality at 500 µg/mL in the experiment on Spodoptera litura was at least 80%. Also, the mortality at 50 µg/mL in the experiment on Plutella xylostella was at least 80%. The mortality at 100 µg/mL with Heliothis virescens and with Cydia pomonella was at least 80% in each case.

As for `CC(C)(C)ON=CCCCCCOc1c(Cl)cc(OCC=C(Cl)Cl)cc1Cl` [(134), 6-(2,6-dichloro-4-(3,3-dichloro-2-propenyloxy)phenoxy)hexanal O-tert-butyloxime], the mortality at 500 µg/mL in the experiment on Spodoptera litura was at least 80%. In addition, the mortality at 50 µg/mL in the experiment with Plutella xylostella was at least 80%. In the experiment with Heliothis virescens, this compound returned a mortality at 100 µg/mL of at least 80%.

As to `CCCON=Cc1ccc(COc2c(Cl)cc(OCC=C(Cl)Cl)cc2Cl)cc1` [(327), 4-(2,6-dichloro-4-(3,3-dichloro-2-propenyloxy)phenoxymethyl)benzaldehyde O-propyloxime], in the experiment on Plutella xylostella, the mortality at 50 µg/mL was at least 80%. The compound also gave a mortality at 100 µg/mL in the experiment on Helicoverpa armigera of at least 80%. In addition, the acaricidal activity result in the experiment on Tetranychus urticae is on record as ““−” or “±””.

In the experiment with Spodoptera litura, `CC(COCCCCCOc1c(Cl)cc(OCC=C(Cl)Cl)cc1Cl)=NOCC=C(Cl)Cl` [(47), 5-(2,6-dichloro-4-(3,3-dichloro-2-propenyloxy)phenoxy)pentyloxyacetone O-(3,3-dichloro-2-propenyl)oxime] displayed a mortality at 500 µg/mL of at least 80%. Further, the mortality at 50 µg/mL with Plutella xylostella was at least 80%. The mortality at 100 µg/mL in the experiment on Heliothis virescens and with Cydia pomonella was at least 80% in each case.

The compound `CC(C)(C)ON=CCOCCCCCCOc1c(Cl)cc(OCC=C(Cl)Cl)cc1Cl` [(91), 6-(2,6-dichloro-4-(3,3-dichloro-2-propenyloxy)phenoxy)hexyloxyacetaldehyde O-tert-butyloxime] displayed a mortality at 500 µg/mL with Spodoptera litura of at least 80%. In addition, the mortality at 50 µg/mL with Plutella xylostella is at least 80%. Moreover, the mortality at 100 µg/mL in the experiment with Heliothis virescens, in the experiment on Helicoverpa armigera and in the experiment with Cydia pomonella was at least 80% in each case.

The compound `CC(COCCCCOc1c(Cl)cc(OCC=C(Cl)Cl)cc1Cl)=NOC(C)(C)C` [(103), 4-(2,6-dichloro-4-(3,3-dichloro-2-propenyloxy)phenoxy)butyloxyacetone O-tert-butyloxime] registered a mortality at 500 µg/mL in the experiment on Spodoptera litura of at least 80%. The mortality at 50 µg/mL with Plutella xylostella was at least 80%.

The compound `CC(C)(C)ON=CCOc1c(Cl)cc(OCC=C(Cl)Cl)cc1Cl` [(131), (2,6-dichloro-4-(3,3-dichloro-2-propenyloxy)phenoxy)acetaldehyde O-tert-butyloxime] came in with a mortality at 500 µg/mL in the experiment with Spodoptera litura of at least 80%.

`CC(=NOCCCCCOc1c(Cl)cc(OCC=C(Cl)Cl)cc1Cl)C(C)C` [(582), 3-methyl-2-butanone O-(5-(2,6-dichloro-4-(3,3-dichloro-2-propenyloxy)phenoxy)pentyl)oxime] came in with a mortality at 100 µg/mL in the experiment with Helicoverpa armigera of at least 80%. Besides, in the experiment with Tetranychus urticae, the acaricidal activity result is ““−” or “±””.

`CCON=C(CC)c1ccc(OCCCOc2c(Cl)cc(OCC=C(Cl)Cl)cc2Cl)cc1` [(318), 4′-(3-(2,6-dichloro-4-(3,3-dichloro-2-propenyloxy)phenoxy)propyloxy)propiophenone O-ethyloxime] registered a mortality at 100 µg/mL in the experiment on Helicoverpa armigera of at least 80%. Also, the acaricidal activity result in the experiment with Tetranychus urticae is ““−” or “±””. In the experiment on Musca domestica, the mortality at 500 µg/mL is at least 80%.

`CC(COCCCCCOc1c(Cl)cc(OCC=C(Cl)Cl)cc1Cl)=NOC(C)(C)C` [(104), 5-(2,6-dichloro-4-(3,3-dichloro-2-propenyloxy)phenoxy)pentyloxyacetone O-tert-butyloxime] showed a mortality at 500 µg/mL with Spodoptera litura of at least 80%. The mortality at 50 µg/mL in the experiment with Plutella xylostella was at least 80%. The mortality at 100 µg/mL in the experiment on Heliothis virescens and with Helicoverpa armigera was at least 80% throughout. For the same compound, in the experiment with Tetranychus urticae, the acaricidal activity entry is given as ““−” or “±””.

Turning to `CC(COCCOCCOc1c(Cl)cc(OCC=C(Cl)Cl)cc1Cl)=NOC(C)(C)C` [(203), 2-(2-(2,6-dichloro-4-(3,3-dichloro-2-propenyloxy)phenoxy)-ethoxy)ethoxyacetone O-tert-butyloxime], the mortality at 500 µg/mL with Spodoptera litura and in the experiment on Musca domestica was at least 80% each time.

Regarding `ClC(Cl)=CCON=CCOCCCOc1c(Cl)cc(OCC=C(Cl)Cl)cc1Cl` [(33), 3-(2,6-dichloro-4-(3,3-dichloro-2-propenyloxy)phenoxy)propyloxyacetaldehyde O-(3,3-dichloro-2-propenyl)oxime], in the experiment on Spodoptera litura, the mortality at 500 µg/mL is at least 80%. In addition, the mortality at 50 µg/mL in the experiment with Plutella xylostella was at least 80%. Besides, the mortality at 100 µg/mL in the experiment with Heliothis virescens and in the experiment with Cydia pomonella was at least 80% throughout.
